pIC50: −log10 of the molar value. Where two headings read alike, the source gives them in different places.
Experiments:
[1] = molecular target: T1, recombinant EphB4 (Homo sapiens, UniProt P54760); experiment: biochemical
T1 sequence (P54760 563-987): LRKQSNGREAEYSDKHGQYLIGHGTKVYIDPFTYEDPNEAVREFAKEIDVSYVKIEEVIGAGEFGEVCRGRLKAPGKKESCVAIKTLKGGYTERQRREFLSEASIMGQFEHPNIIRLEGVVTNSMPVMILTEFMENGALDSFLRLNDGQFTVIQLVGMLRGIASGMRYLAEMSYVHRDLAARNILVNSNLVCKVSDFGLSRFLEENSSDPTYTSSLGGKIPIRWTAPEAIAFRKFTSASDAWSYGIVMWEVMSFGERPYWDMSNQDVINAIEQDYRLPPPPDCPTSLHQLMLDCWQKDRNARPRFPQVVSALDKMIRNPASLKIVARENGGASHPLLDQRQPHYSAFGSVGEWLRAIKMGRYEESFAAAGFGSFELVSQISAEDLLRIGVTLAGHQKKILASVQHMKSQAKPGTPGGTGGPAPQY
Description: (§1) This assay detects inhibitors of EphB4-mediated phosphorylation of a polypeptide substrate using Alphascreen™ luminescence detection technology. […] The reaction was stopped by addition of EDTA, together with streptavidin-coated donor beads which bind the biotin-substrate containing any phosphorylated tyrosine residues. Anti-phosphotyrosine antibodies present on acceptor beads bind to phosphorylated substrate, thus bringing the donor & acceptor beads into close proximity. Subsequent excitation of the donor beads at 680 nm generated singlet oxygen species that interact with a chemiluminescer on the acceptor beads, leading to light emission at 520-620 nm. The signal intensity is directly proportional to the level of substrate phosphorylation and thus inhibition is measured by a decrease in signal.
(§2) To ensure that each well contained a total of 120 nl DMSO the wells were all backfilled as required. […] The test range of compounds was 100× the required final concentration.
(§3) Assay plates were then incubated at room temperature for 1 hour.
(§4) For assays using compounds prepared via acoustic dispensing, the assay mix was adjusted such that the final assay volume of 12 ul contained the same concentration of reagent as 10 ul of assay mix used when aqueous compounds were tested.
(§5) The plates were sealed under natural lighting conditions, wrapped in aluminium foil and incubated in the dark for a further 20 hours.
(§6) The resulting assay signal was determined on the Perkin Elmer EnVision plate reader. The minimum value was subtracted from all values, and the signal plotted against compound concentration to generate IC50 data. The method used to generate the compound dilutions was recorded with the IC50 value in the database.

[2] = molecular target: T2, EphB4 (Homo sapiens, UniProt P54760); experiment: In vitro EphB4 cell assay (EphB4 phosphorylation ELISA in EphB4-CHO cells); format: cell-based
T2 construct: to generate full-length EphB4 containing a Myc-His tag at the C-terminus; expressed in transfected cells
T2 sequence (P54760 16-987): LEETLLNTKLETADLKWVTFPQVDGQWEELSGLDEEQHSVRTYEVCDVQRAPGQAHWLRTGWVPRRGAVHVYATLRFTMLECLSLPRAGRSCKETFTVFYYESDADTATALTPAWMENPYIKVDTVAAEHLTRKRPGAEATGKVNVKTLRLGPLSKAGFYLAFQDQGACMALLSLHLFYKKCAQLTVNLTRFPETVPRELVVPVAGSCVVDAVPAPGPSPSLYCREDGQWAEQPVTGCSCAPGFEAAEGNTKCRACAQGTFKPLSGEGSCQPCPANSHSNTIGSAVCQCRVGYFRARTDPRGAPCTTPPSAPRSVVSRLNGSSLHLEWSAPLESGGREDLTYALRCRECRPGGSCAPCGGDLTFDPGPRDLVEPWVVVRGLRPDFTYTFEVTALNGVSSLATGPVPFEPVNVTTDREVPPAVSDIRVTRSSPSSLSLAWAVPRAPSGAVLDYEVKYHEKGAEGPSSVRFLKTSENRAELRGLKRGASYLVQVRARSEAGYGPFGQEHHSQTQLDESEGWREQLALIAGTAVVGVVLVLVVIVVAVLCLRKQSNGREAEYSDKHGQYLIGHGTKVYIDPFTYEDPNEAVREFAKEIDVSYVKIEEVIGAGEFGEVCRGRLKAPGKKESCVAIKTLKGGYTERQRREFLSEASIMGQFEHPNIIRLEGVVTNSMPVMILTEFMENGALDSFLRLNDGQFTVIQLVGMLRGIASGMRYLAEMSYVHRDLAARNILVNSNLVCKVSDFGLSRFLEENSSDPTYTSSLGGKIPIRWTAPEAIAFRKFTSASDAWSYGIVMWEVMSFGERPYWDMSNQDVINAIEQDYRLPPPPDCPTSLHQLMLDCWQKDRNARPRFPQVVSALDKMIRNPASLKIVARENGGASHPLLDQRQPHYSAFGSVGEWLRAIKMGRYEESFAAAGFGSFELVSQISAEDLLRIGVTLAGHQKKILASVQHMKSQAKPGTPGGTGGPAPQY
Description: The assay identifies inhibitors of cellular EphB4 by measuring a decrease in phosphorylation of EphB4 following treatment of cells with compound. The endpoint assay used a sandwich ELISA to detect EphB4 phosphorylation status. Briefly, Myc-tagged EphB4 from treated cell lysate was captured on the ELISA plate via an anti-c-Myc antibody. The phosphorylation status of captured EphB4 was then measured using a generic phosphotyrosine antibody conjugated to HRP via a colourimetric output catalysed by HRP, with level of EphB4 phosphorylation directly proportional to the colour intensity. Absorbance was measured spectrophotometrically at 450 nm.
Full length human EphB4 (Swiss-Prot Acc. No. P54760) was cloned using standard techniques from cDNA prepared from HUVEC using RT-PCR. The cDNA fragment was then sub-cloned into a pcDNA3.1 expression vector containing a Myc-His epitope tag to generate full-length EphB4 containing a Myc-His tag at the C-terminus (Invitrogen Ltd. Paisley, UK). […] CHO-K1 cells were engineered to stably express the EphB4-Myc-His construct using standard stable transfection techniques, to generate cells hereafter termed EphB4-CHO. […]
Plates were washed twice with PBS/0.05% Tween-20 and incubated with 100 μl/well cell lysate overnight at 4° C. […] The absorbances were determined at 450 nm using the Tecan SpectraFluor Plus. […]

[3] = molecular target: T1, recombinant EphB4; settings: read-out: EphB4 enzyme assay Mean IC50 value; Method of compound preparation: Genesis (aqueous compound preparation); * = tested once only
Description: as §1, §2, §3, §4, §5, §6

[4] = EphB4 enzyme assay Mean IC50 value, Method of compound preparation: Echo (acoustic dispensing), * = tested once only
[5] = EphB4 enzyme assay Mean IC50 value, Method of compound preparation: Genesis (aqueous compound preparation), * = tested once only

pIC50 [1, 4] | pIC50 [1, 5] | Compound | other results
– | 6.94 | Cc1ccc(N(C)c2ccnc(Nc3cc(N4CCOCC4)cc(N4CCOCC4)c3)n2)cn1 [Example 7a, N-(3,5-dimorpholin-4-ylphenyl)-N′-methyl-N′-(6-methylpyridin-yl)pyrimidine-2,4-diamine] | –
– | 6.42 | Cc1cnc(C)c(N(C)c2ccnc(Nc3cc(N4CCOCC4)cc(N4CCOCC4)c3)n2)c1 [Example 7c, N′-(2,5-dimethylpyridin-3-yl)-N-(3,5-dimorpholin-4-ylphenyl)-N′-methyl-pyrimidine-2,4-diamine] | –
8.36 | – | COc1cnc(C)c(N(C)c2ccnc(Nc3cc(N4CCOCC4)cc(N4CCOCC4)c3)n2)c1 [Example 7d, N-(3,5-dimorpholin-4-ylphenyl)-N′-(5-methoxy-2-methyl-pyridin-3-yl)-N′-methyl-pyrimidine-2,4-diamine] | –
– | 6.97 | COc1cc(N(C)c2ccnc(Nc3cc(N4CCOCC4)cc(N4CCOCC4)c3)n2)cnc1Cl [Example 8a, N′-(6-chloro-5-methoxy-pyridin-3-yl)-N-(3,5-dimorpholin-4-ylphenyl)-N′-methyl-pyrimidine-2,4-diamine] | –
– | 6.78 | Cc1cc(N(C)c2ccnc(Nc3cc(N4CCOCC4)cc(N4CCOCC4)c3)n2)cnc1Cl [Example 8b, N′-(6-chloro-5-methyl-pyridin-3-yl)-N-(3,5-dimorpholin-4-ylphenyl)-N′-methyl-pyrimidine-2,4-diamine] | –

Further lines, the compound ahead of its results:

Compound | pIC50 [1, 4] | pIC50 [1, 5] | other results
CN(c1cc(Cl)ccn1)c1ccnc(Nc2cc(N3CCOCC3)cc(N3CCOCC3)c2)n1 [Example 2a, N′-(4-chloropyridin-2-yl)-N-(3,5-dimorpholin-4-ylphenyl)-N′-methyl-pyrimidine-2,4-diamine] | – | – | pIC50 ([1]; IC50 in assay A, method of compound preparation not stated): 6.39; pIC50 [2]: 6.71
CN(c1cncc(Cl)c1)c1ccnc(Nc2cc(N3CCOCC3)cc(N3CCOCC3)c2)n1 [Example 3, N′-(5-chloropyridin-3-yl)-N-(3,5-dimorpholin-4-ylphenyl)-N′-methyl-pyrimidine-2,4-diamine] | 7.93 | 7.31 | –
CN(c1cccc(Cl)n1)c1ccnc(Nc2cc(N3CCOCC3)cc(N3CCOCC3)c2)n1 [Example 4, N′-(6-chloropyridin-2-yl)-N-(3,5-dimorpholin-4-ylphenyl)-N′-methyl-pyrimidine-2,4-diamine] | – | 6.21 | –
CN(c1ccc(Cl)nc1)c1ccnc(Nc2cc(N3CCOCC3)cc(N3CCOCC3)c2)n1 [Example 6, N4-(6-chloropyridin-3-yl)-N2-(3,5-dimorpholinophenyl)-N4-methylpyrimidine-2,4-diamine] | – | 6.70 | –
COc1cnc(Cl)c(N(C)c2ccnc(Nc3cc(N4CCOCC4)cc(N4CCOCC4)c3)n2)c1 [Example 9, N′-(2-chloro-5-methoxy-pyridin-3-yl)-N-(3,5-dimorpholin-4-ylphenyl)-N′-methyl-pyrimidine-2,4-diamine] | 7.97 | – | –
Cc1ccc(CO)nc1N(C)c1ccnc(Nc2cc(N3CCOCC3)cc(N3CCOCC3)c2)n1 [Example 10, (6-((2-(3,5-dimorpholinophenylamino)pyrimidin-4-yl)(methyl)amino)-5-methylpyridin-2-yl)methanol] | 6.85 | – | –
Cc1cccc(N(C)c2ccnc(Nc3cc(N4CCOCC4)cc(N4CCOCC4)c3)n2)n1 [Example 11, N-[3,5-di(morpholin-4-yl)phenyl]-N′-methyl-N′-(6-methylpyridin-2-yl)pyrimidine-2,4-diamine] | 6.68 | < 4.84 | –
Cc1ccc(N(C)c2ccnc(Nc3cc(N4CCOCC4)cc(N4CCOCC4)c3)n2)nc1 [Example 12, N-[3,5-di(morpholin-4-yl)phenyl]-N′-methyl-N′-(5-methylpyridin-2-yl)pyrimidine-2,4-diamine] | 6.80 | 6.60 | –
Cc1ncc(CO)cc1N(C)c1ccnc(Nc2cc(N3CCOCC3)cc(N3CCOCC3)c2)n1 [Example 13, [5-[[2-[[3,5-di(morpholin-4-yl)phenyl]amino]pyrimidin-4-yl]-methylamino]-6-methylpyridin-3-yl]methanol] | 7.17 | – | –
N′-(4-chloropyridin-4-yl)-N-(3,5-dimorpholin-4-ylphenyl)-N′-methyl-pyrimidine-2,4-diamine [Example 2b] | – | – | pIC50 [3]: 6.68
